Data from ChEMBL document CHEMBL1152201, “Synthesis of 3,6-bicyclolides: a novel class of macrolide antibiotics” (2008).
Values after ≈ are worked out from the molar mass of the structure shown.

Key:
Format in all cases: functional
Staphylococcus aureus [1] = experiment: Antibacterial activity against erythromycin-susceptible Staphylococcus aureus 29213 by broth-microdilution method; details: ATCC29213
Staphylococcus aureus [2] = experiment: Antibacterial activity against MLSB-resistant Staphylococcus aureus 27660 by broth-microdilution method
Staphylococcus aureus [3] = experiment: Antibacterial activity against methicillin-resistant Staphylococcus aureus 33591 by broth-microdilution method
Streptococcus pneumoniae [4] = experiment: Antibacterial activity against erythromycin-susceptible Streptococcus pneumoniae 49619 by broth-microdilution method
Streptococcus pneumoniae [5] = experiment: Antibacterial activity against erythromycin-resistant Streptococcus pneumoniae 7701 expressing mef gene by broth-microdilution method
Streptococcus pneumoniae [6] = experiment: Antibacterial activity against erythromycin-resistant Streptococcus pneumoniae 700906 expressing […] gene by broth-microdilution method
Streptococcus pyogenes [7] = experiment: Antibacterial activity against erythromycin-susceptible Streptococcus pyogenes 19615 by broth-microdilution method
Streptococcus pyogenes [8] = experiment: Antibacterial activity against erythromycin-resistant Streptococcus pyogenes 1323 expressing mef gene by broth-microdilution method
Streptococcus pyogenes [9] = experiment: Antibacterial activity against erythromycin-resistant Streptococcus pyogenes 2912 expressing erm gene by broth-microdilution method
Haemophilus influenzae [10] = experiment: Antibacterial activity against ampicillin-resistant Haemophilus influenzae 33929 by broth-microdilution method
Haemophilus influenzae [11] = experiment: Antibacterial activity against ampicillin-susceptible Haemophilus influenzae by broth-microdilution method
Moraxella catarrhalis = experiment: Antibacterial activity against Moraxella catarrhalis by broth-microdilution method
Staphylococcus aureus [12] = experiment: Antibacterial activity against macrolide-susceptible Staphylococcus aureus Smith infected in mouse
Staphylococcus aureus [13] = experiment: Antibacterial activity against macrolide-resistant Staphylococcus aureus 7701 infected in mouse
Staphylococcus aureus [14] = experiment: Antibacterial activity against macrolide-susceptible Staphylococcus aureus Smith by broth-microdilution method

Row | SMILES | MIC (Staphylococcus aureus [1]) | MIC (Staphylococcus aureus [2]) | MIC (Staphylococcus aureus [3]) | MIC (Streptococcus pneumoniae [4]) | MIC (Streptococcus pneumoniae [5]) | MIC (Streptococcus pneumoniae [6]) | MIC (Streptococcus pyogenes [7]) | MIC (Streptococcus pyogenes [8]) | MIC (Streptococcus pyogenes [9]) | MIC (Haemophilus influenzae [10]) | MIC (Haemophilus influenzae [11]) | MIC (Moraxella catarrhalis) | ED50 (Staphylococcus aureus [12]) | ED50 (Staphylococcus aureus [13]) | MIC (Staphylococcus aureus [14])
1 | C=C1CO[C@H]2[C@H](C)[C@@H](O[C@@H]3O[C@H](C)C[C@H](N(C)C)[C@H]3O)[C@](C)(C[C@@H](C)[C@H](N)[C@H](C)[C@@H](O)[C@](C)(O)[C@@H](CC)OC(=O)[C@@H]2C)OC1 | 4 µg/mL (≈ 6.36 µM) | 4 µg/mL (≈ 6.36 µM) | > 64 µg/mL | ≤ 0.06 µg/mL | 0.125 µg/mL (≈ 0.199 µM) | > 64 µg/mL | ≤ 0.06 µg/mL | 0.25 µg/mL (≈ 0.398 µM) | 64 µg/mL (≈ 102 µM) | 32 µg/mL (≈ 50.9 µM) | 32 µg/mL (≈ 50.9 µM) | 0.5 µg/mL (≈ 0.795 µM) |  |  | 
2 | C=C1CO[C@H]2[C@H](C)[C@@H](O[C@@H]3O[C@H](C)C[C@H](N(C)C)[C@H]3O)[C@](C)(C[C@@H](C)C(=N)[C@H](C)[C@@H](O)[C@](C)(O)[C@@H](CC)OC(=O)[C@@H]2C)OC1 | 2 µg/mL (≈ 3.19 µM) | 2 µg/mL (≈ 3.19 µM) | > 64 µg/mL | 0.125 µg/mL (≈ 0.199 µM) | 0.25 µg/mL (≈ 0.399 µM) | > 64 µg/mL | 0.125 µg/mL (≈ 0.199 µM) | 0.5 µg/mL (≈ 0.798 µM) | 64 µg/mL (≈ 102 µM) | 64 µg/mL (≈ 102 µM) | 16 µg/mL (≈ 25.5 µM) | 0.5 µg/mL (≈ 0.798 µM) |  |  | 
3 | C=C1CO[C@H]2[C@H](C)[C@@H](O[C@@H]3O[C@H](C)C[C@H](N(C)C)[C@H]3O)[C@](C)(C[C@@H](C)C(=O)[C@H](C)[C@@H](O)[C@](C)(O)[C@@H](CC)OC(=O)[C@@H]2C)OC1 | 1 µg/mL (≈ 1.59 µM) | 1 µg/mL (≈ 1.59 µM) | > 64 µg/mL | 0.125 µg/mL (≈ 0.199 µM) | 0.25 µg/mL (≈ 0.398 µM) | > 64 µg/mL | 0.25 µg/mL (≈ 0.398 µM) | 0.5 µg/mL (≈ 0.796 µM) | > 64 µg/mL | 64 µg/mL (≈ 102 µM) | 64 µg/mL (≈ 102 µM) | 0.5 µg/mL (≈ 0.796 µM) |  |  | 
4 | C=C1CO[C@H]2[C@H](C)[C@@H](O[C@@H]3O[C@H](C)C[C@H](N(C)C)[C@H]3O)[C@](C)(C[C@@H](C)C(=O)[C@H](C)[C@@H]3NC(=O)O[C@]3(C)[C@@H](CC)OC(=O)[C@@H]2C)OC1 | 0.125 µg/mL (≈ 0.191 µM) | 0.125 µg/mL (≈ 0.191 µM) | > 64 µg/mL | ≤ 0.06 µg/mL |  | > 64 µg/mL | ≤ 0.06 µg/mL | 0.125 µg/mL (≈ 0.191 µM) | > 64 µg/mL | 4 µg/mL (≈ 6.13 µM) | 2 µg/mL (≈ 3.06 µM) | ≤ 0.06 µg/mL | 10 mg/kg | 7 mg/kg | 0.125 µg/mL (≈ 0.191 µM)
5 | C=C1CO[C@H]2[C@H](C)[C@@H](O[C@@H]3O[C@H](C)C[C@H](N(C)C)[C@H]3O)[C@](C)(C[C@@H](C)/C(=N\O)[C@H](C)[C@@H](O)[C@](C)(O)[C@@H](CC)OC(=O)[C@@H]2C)OC1 | 1 µg/mL (≈ 1.56 µM) | 1 µg/mL (≈ 1.56 µM) | > 64 µg/mL | ≤ 0.06 µg/mL | 0.25 µg/mL (≈ 0.389 µM) | > 64 µg/mL | 0.125 µg/mL (≈ 0.194 µM) | 0.25 µg/mL (≈ 0.389 µM) | > 64 µg/mL | 32 µg/mL (≈ 49.8 µM) | 32 µg/mL (≈ 49.8 µM) | 0.25 µg/mL (≈ 0.389 µM) |  |  | 
6 | CC[C@H]1OC(=O)[C@H](C)[C@@H](O[C@H]2C[C@@](C)(OC)[C@@H](O)[C@H](C)O2)[C@H](C)[C@@H](O[C@@H]2O[C@H](C)C[C@H](N(C)C)[C@H]2O)[C@](C)(O)C[C@@H](C)C(=O)[C@H](C)[C@@H](O)[C@]1(C)O [ERYTHROMYCIN] | 0.5 µg/mL (≈ 0.681 µM) | > 64 µg/mL | > 64 µg/mL | ≤ 0.06 µg/mL | 4 µg/mL (≈ 5.45 µM) | > 64 µg/mL | 0.015 µg/mL (≈ 0.0204 µM) | 16 µg/mL (≈ 21.8 µM) | > 64 µg/mL | 4 µg/mL (≈ 5.45 µM) | 4 µg/mL (≈ 5.45 µM) | 0.13 µg/mL (≈ 0.177 µM) |  |  | 
7 | CC[C@H]1OC(=O)[C@H](C)C(=O)[C@H](C)[C@@H](O[C@@H]2O[C@H](C)C[C@H](N(C)C)[C@H]2O)[C@](C)(OC)C[C@@H](C)C(=O)[C@H](C)[C@H]2N(CCCCn3cnc(-c4cccnc4)c3)C(=O)O[C@]12C [TELITHROMYCIN] |  |  |  |  |  |  |  |  |  |  |  |  | 17.2 mg/kg | 17.2 mg/kg | 0.125 µg/mL (≈ 0.154 µM)
